Key:
[1] = system: inhibitorischen Autorezeptoren in hippocampalem Gewebe; test: Transmitter release study: in vitro acetylcholine release from electrically stimulated hippocampal slices, antagonism of carbachol; assay type: biochemical, Ratten
Source text: Die Versuche zur in-vitro Freisetzung von Acetylcholin aus hippocampalen Gewebeschnitten wurden in Analogie zu Anordnungen durchgeführt, die für die Freisetzung von 5-HT aus Hypothalamus- bzw. Hippocampus-Gewebe beschrieben sind (vgl. M.H. Richards, Naunyn Schmiedeberg's Arch. Pharmacol. 329, 359-366 (1985) und T.J. Feuerstein, G. Hertting und R. Jackisch, Europ. J. Pharmacol. 107, 233-242 (1985)).
Männliche Ratten (Stamm Chbb:Thom, Gewicht 200 bis 300 g) wurden ohne Vorbehandlung dekapitiert; das gesamte Gehirn wurde sofort entnommen und unter Eiskühlung zerlegt. Gemäß den oben beschriebenen Verfahren wurde der Hippocampus in 0,4 mm dicke Schnitte mit Hilfe eines McIlwain-Gewebehackers geschnitten. Die Gewebeschnitte wurden 30 Minuten lang bei 37°C vorincubiert in Gegenwart von 0,05 mM ³H-Cholin in einem Krebs-Henseleit Puffer der folgenden Zusammensetzung: 120 mM NaCl, 4,8 mM KCl, 1,3 mM CaCl₂, 1,2 mM KH₂PO₄, 1,2 mM MgSO₄ und 25 mM NaHCO₃. Der Puffer enthielt zusätzlich 2 g Glucose und 100 mg EDTA. Der Puffer wurde mit Natronlauge auf einen pH-Wert von 7,4 bei 20°C eingestellt. Alle Lösungen wurden kontinuierlich mit 95 % O₂ und 5 % CO₂ gesättigt. Die Gewebeschnitte wurden daraufhin gespült, jeder Gewebeschnitt wurde jeweils willkürlich auf 12 Superfusionseinheiten verteilt und mit dem Puffer bei 37°C bei einer Fließgeschwindigkeit von 1 ml/min überspült. […]

[2] = target: T1, muscarinischen Rezeptoren des Cortex (Rezeptoren vom M₁-Subtyp) (Rattus norvegicus, UniProt P08482); test: 3H-NMS binding study at muscarinic receptors of the cortex (cerebral cortex homogenate); design: species or system Sprague-Dawley-Ratten; conditions: 0,3 nM ³H-NMS, Großhirnrinde homogenate 1:3000, 30°C, 45 min
T1 sequence (P08482 1-460): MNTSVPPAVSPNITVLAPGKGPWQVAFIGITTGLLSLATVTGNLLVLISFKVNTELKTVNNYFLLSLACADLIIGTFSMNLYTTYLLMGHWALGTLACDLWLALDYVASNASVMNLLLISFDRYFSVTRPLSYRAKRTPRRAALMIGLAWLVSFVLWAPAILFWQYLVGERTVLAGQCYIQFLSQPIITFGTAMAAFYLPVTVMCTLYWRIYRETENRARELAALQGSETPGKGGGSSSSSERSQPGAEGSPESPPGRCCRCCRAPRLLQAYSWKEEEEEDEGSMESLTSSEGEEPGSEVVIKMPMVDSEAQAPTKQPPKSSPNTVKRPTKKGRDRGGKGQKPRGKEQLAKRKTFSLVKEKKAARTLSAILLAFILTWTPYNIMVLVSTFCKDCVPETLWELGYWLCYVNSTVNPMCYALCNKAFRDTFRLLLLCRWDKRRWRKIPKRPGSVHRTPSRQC
Source text: Als Organspender dienten männliche Sprague-Dawley-Ratten mit 180-220 g Körpergewicht. Nach Entnahme der Großhirnrinde wurden alle weiteren Schritte in eiskaltem Hepes-HCl-Puffer (pH 7,4; 100 m molar NaCl, 10 m molar MgCl₂) vorgenommen. Das Gesamtherz wurde mit einer Schere zerkleinert. Alle Organe wurden abschließend in einem Potter homogenisiert.
Für den Bindungstest wurden die Organhomogenate in folgender Weise verdünnt:
Die Inkubation der Organhomogenate erfolgte bei einer bestimmten Konzentration des Radioliganden und einer Konzentrationsreihe der nichtradioaktiven Testsubstanzen im Eppendorf-Zentrifugenröhrchen bei 30°C. Die Inkubationsdauer betrug 45 Minuten. Als Radioligand wurde 0,3 n molar ³H-N-Methylscopolamin (³H-NMS) verwendet. Die Inkubation wurde durch Zugabe von eiskaltem Puffer mit nachfolgender Vakuumfiltration beendet. Die Filter wurden mit kaltem Puffer gespült und ihre Radioaktivität bestimmt. Sie repräsentiert die Summe von spezifischer und unspezifischer Bindung von ³H-NMS. Der Anteil der unspezifischen Bindung wurde defi niert als jene Radioaktivität, die in Anwesenheit von 1 µ molar Chinuclidinylbenzilat gebunden wurde. Es wurden immer Vierfachbestimmungen vorgenommen. Die IC₅₀-Werte der nichtmarkierten Testsubstanzen wurden graphisch bestimmt. […]

[3] = target: muscarinische Rezeptoren der Pia mater des Rindes; test: Inhibition of 3H-NMS binding to muscarinic receptors of bovine pia mater homogenate; design: species or system Rind; conditions: 0,3 nM [³H]NMS, 45 min, room temperature
Method: Die Pia-Gefäße von Rinder-Hirnen, erhalten vom lokalen Schlachthof, wurden präpariert und von Blutresten gereinigt. Je 0,5 g-Portionen wurden bei 8°C bis zur weiteren Verwendung gelagert. Zur Homogenatgewinnung wurden 0,5 g Pia-Geäße mittels eines Gewebehackers zerkleinert, in 60 ml HEPES-Puffer (20 mM HEPES, 10 mM MgCl₂, 100 mM NaCl, pH 7,50) aufgenommen, mit einem Ultra-Turrax homogenisiert und 20 min. bei 0°C mit 48000 x g zentrifugiert. Das Pellet wurde erneut mit einem Ultra-Turrax homogenisiert, durch Mull filtriert und mit HEPES-Puffer auf eine Verdünnung von 1:140 bezogen auf das Feuchtgewicht der Gefäße verdünnt.
0,3 nM [³H]NMS und steigende Konzentrationen des Antagonisten wurden mit dem Homogenat in einem Gesamtvolumen von 0,52 ml für 45 min. bei Raumtemperatur inkubiert. Der Inkubationsansatz wurde mit Hilfe eines Scatron Cell Harvesters über Glasfaser-Filtermatten filtriert und zweimal mit eiskalter physiologischer Kochsalzlösung gewaschen. Die Filter-gebundene Radioaktivität wurde in einem Flüssigkeitsszintillationszähler bestimmt. Als unspezifische Bindung wurde die gebundene Radioaktivität in Gegenwart von 10⁻⁶M (-)-Chinuclidinyl-benzilat definiert.

`CCN(CCCC(=O)N1CCC(C(=O)N(C)C)CC1)C(C)Cc1ccc(OC)cc1` (racemic) [Substanz I, (±)-1-[4-[Ethyl[2-(4-methoxyphenyl)-1-methylethyl]amino]-1-oxobutyl]-N,N-dimethyl-4-piperidincarboxamid] was tested, and the “ACh-Release am Hippocampus-Gewebe (pA₂)” value ([1]; rat hippocampal slices, electrical stimulation, agonist Carbachol) was 8,7, the “Verhältnis von IC₅₀ (Cortex) zu pA₂(ACh-Release)” value ([1]; selectivity ratio: cortex (M₁) binding versus ACh release in hippocampus) was 25 and the “Rezeptor-Bingungstests Cortex -log IC₅₀ (M)” value [2] was 7,3. For the same compound, the “-log IC₅₀ (M)” value [3] was 8,2.

Reference: patent EP0402733A2, “Agent for the treatment of central nervous system illnesses and for the enhancement of cerebral blood flow” (Dr. Karl Thomae GmbH, priority 1989, dated 1990)
